Counter-ions that a name gives are not always drawn. Blank lines part the entries; values can stand above or below the compound they belong to.
Assays:
[1] = biological target: T1, Human A3 receptor (Homo sapiens, UniProt P0DMS8); assay: Human A3 receptor binding assay, [125I]AB-MECA, HEK-293 cells; parameters: expressed in transfected cells; details: [125I]AB-MECA 0.15 nM; for inhibition at 1 µM: read-out: hA3 inhibition at 1 μM (of specific binding); for IC50: HEK-293 cells, read-out: hA3 IC50
T1 sequence (P0DMS8 1-318): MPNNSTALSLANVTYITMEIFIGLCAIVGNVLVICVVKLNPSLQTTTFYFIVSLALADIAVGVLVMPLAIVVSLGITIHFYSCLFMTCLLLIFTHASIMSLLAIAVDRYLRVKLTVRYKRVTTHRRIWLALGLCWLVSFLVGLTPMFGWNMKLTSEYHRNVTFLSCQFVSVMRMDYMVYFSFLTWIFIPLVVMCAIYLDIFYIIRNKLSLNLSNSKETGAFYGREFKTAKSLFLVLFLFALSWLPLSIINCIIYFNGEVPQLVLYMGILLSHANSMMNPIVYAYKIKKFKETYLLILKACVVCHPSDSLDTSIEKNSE
Protocol: Compounds of the invention were evaluated in binding assays following procedure described by Salvatore et al. (Proc. Natl. Acad. Sci. (1993), 90:10365-10369). Human A3 receptors were used in HEK-293 cells with [^125I]AB-MECA (0.15 nM) as radioligand, IB-MECA (1 μM) for non-specific binding and 90 minutes of incubation at 22° C.

[2] = biological target: T2, Human A1 receptor (Homo sapiens, UniProt P30542); assay: Human A1 receptor binding assay, [3H]DPCPX, CHO cells; details: for inhibition at 10 µM / IC50: [3H]DPCPX 1 nM; for inhibition at 10 µM: read-out: hA1 inhibition at 10 μM; for IC50: CHO cells, read-out: hA1 IC50
T2 construct: expressed in transfected cells; host or cells: CHO cells
T2 sequence (P30542 1-326): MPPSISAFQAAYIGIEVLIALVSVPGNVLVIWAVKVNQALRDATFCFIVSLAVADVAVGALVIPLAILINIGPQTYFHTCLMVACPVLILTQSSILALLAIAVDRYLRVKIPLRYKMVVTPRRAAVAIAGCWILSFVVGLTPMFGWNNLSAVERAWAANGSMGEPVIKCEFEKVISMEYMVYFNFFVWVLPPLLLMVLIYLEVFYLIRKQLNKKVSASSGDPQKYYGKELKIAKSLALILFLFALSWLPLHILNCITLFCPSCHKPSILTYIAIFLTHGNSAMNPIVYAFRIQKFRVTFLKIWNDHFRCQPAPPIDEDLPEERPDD
Protocol: Compounds of the invention were evaluated in binding assays following procedure described by Townsend-Nicholson and Schofield (J. Biol. Chem. (1994), 269:2373-2376). Human A1 receptors were used in CHO cells with [^3H]DPCPX (1 nM) as radioligand, DPCPX (1 μM) for non-specific binding and 60 minutes of incubation at 22° C.

[3] = biological target: T3, Human A2B receptor (Homo sapiens, UniProt P29275); assay: Human A2B receptor binding assay, [3H]MRS1754, HEK-293 cells; details: for IC50: [3H]MRS1754 0.5 nM, HEK-293 cells, read-out: hA2B IC50
T3 construct: expressed in transfected cells; host or cells: HEK-293 cells
T3 sequence (P29275 1-332): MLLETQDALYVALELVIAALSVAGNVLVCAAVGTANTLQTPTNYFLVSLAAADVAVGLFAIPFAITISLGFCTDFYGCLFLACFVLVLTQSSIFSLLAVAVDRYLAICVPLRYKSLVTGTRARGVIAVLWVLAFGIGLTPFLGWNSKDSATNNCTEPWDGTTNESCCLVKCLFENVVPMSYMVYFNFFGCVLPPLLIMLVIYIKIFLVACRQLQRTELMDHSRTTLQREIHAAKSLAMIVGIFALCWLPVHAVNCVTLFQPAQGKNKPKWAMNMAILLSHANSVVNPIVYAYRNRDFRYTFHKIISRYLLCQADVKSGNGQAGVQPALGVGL
Protocol: Compounds of the invention were evaluated in binding assays following procedure described by Stehle et al. (Mol. Endocrinol. (1992), 6:384-393). Human A2B receptors were used in HEK-293 cells with [^3H]MRS1754 (0.5 nM) as radioligand, NECA (1 μM) for non-specific binding and 120 minutes of incubation at 22° C.

[4] = biological target: T4, Human A2A receptor (Homo sapiens, UniProt P29274); assay: Human A2A receptor binding assay, [3H]CGS 21680, HEK-293 cells; details: for inhibition at 10 µM / IC50: [3H]CGS 21680 6 nM; for inhibition at 10 µM: read-out: hA2A inhibition at 10 μM; for IC50: HEK-293 cells, read-out: hA2A IC50
T4 construct: expressed in transfected cells; host or cells: HEK-293 cells
T4 sequence (P29274 whole entry): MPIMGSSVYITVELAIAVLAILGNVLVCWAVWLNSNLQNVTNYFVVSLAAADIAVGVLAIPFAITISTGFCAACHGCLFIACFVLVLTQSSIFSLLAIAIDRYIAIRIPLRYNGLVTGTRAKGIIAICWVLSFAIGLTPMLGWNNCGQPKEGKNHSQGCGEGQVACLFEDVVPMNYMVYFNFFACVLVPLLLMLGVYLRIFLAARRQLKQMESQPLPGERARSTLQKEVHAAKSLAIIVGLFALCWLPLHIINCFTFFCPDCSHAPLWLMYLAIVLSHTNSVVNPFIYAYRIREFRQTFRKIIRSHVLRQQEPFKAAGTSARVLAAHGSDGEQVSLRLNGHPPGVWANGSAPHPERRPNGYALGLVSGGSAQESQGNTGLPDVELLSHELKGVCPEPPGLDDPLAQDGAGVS
Protocol: Compounds of the invention were evaluated in binding assays following procedure described by Luthin et al. (Mol. Pharmacol. (1995), 47:307-313). Human A2A receptors were used in HEK-293 cells with [^3H]CGS 21680 (6 nM) as radioligand, NECA (10 μM) for non-specific binding and 90 minutes of incubation at 22° C.

[5] = biological target: T1, Human A3 receptor; assay: Functional assay on human A3 receptor: forskolin-stimulated cAMP in CHO cells; assay type: cell-based; parameters: expressed in transfected cells; host or cells: CHO cells; details: for cAMP levels: forskolin 10 μM, example 1 10 μM, Cl-IB-MECA 0.1 μM, Basal 0, Forskolin 100
Protocol: CHO cells expressing the human A3 receptor were grown overnight as a monolayer in 24 well tissue culture plates (400 μl/well; 2×10^5 cells/well). cAMP generation was performed in Dulbecco's modified Eagle's medium (DMEM)/N-2-hydroxyethylpiperazin-N-2-ethansulfonic acid (HEPES) buffer (0.60 g HEPES/50 ml DMEM pH 7.4). Each well was washed twice with HEPES/DMEM buffer (250 μl), and the following added: rolipram (50 μM) and cilostamide (50 μM). This was incubated for 30 min at 37° C. followed by the introduction of the compound of example 1 (10 μM) and Cl-IB-MECA (0.1 μM) or DMEM/HEPES. After a further 10 min of incubation, forskolin was added (10 μM). After a subsequent 15 min, incubation was stopped by aspirating the assay medium and by adding 200 μl of ice-cold 0.1M HCl. The amount of cAMP was determined by competition with [3H]cAMP for protein kinase A (PKA). Briefly, the sample, approximately 1.8 nM [3H]cAMP, and 100 μl of PKA solution were incubated on ice for at least 2.5 h. The incubations were stopped by rapid dilution with 2 ml of icecold Tris HCl buffer (pH 7.4), and bound radioactive material was then recovered by filtration through Whatman GF/C filters. Filters were additionally rinsed with 2×2 ml of Tris HCl buffer, and then the radioactivity was counted in Packard Emulsifier Safe scintillation fluid (3.5 mL). All data reflect three independent experiments.

inhibition at 10 µM [2]: 53% | IC50 [1]: 0.0031 µM | IC50 [3]: > 10 µM | inhibition at 10 µM [4]: 69%
SMILES: O=c1[nH]c2ccc(NCCCN3CCOCC3)cc2n2cc(-c3ccccc3)cc12 [Example 15, 8-(3-Morpholin-4-yl-propylamino)-2-phenyl-5H-pyrrolo[1,2-a]quinoxalin-4-one, trifluoro-acetic acid salt]

inhibition at 10 µM [2]: 54% | IC50 [1]: 0.0035 µM | IC50 [3]: > 10 µM | melting point: 190 to 200 °C | inhibition at 10 µM [4]: 57%
SMILES: O=C(O)C(F)(F)F.O=c1[nH]c2ccc(OCCN3CCOCC3)cc2n2cc(-c3ccccc3)cc12 [Example 17, 8-(2-Morpholin-4-yl-ethoxy)-2-phenyl-5H-pyrrolo[1,2-a]quinoxalin-4-one, trifluoroacetic acid salt]

inhibition at 1 µM [1]: 32%
SMILES: CN(C)c1ccc(-c2cc3c(=O)[nH]c4ccccc4n3c2)cc1 [Example 10, 2-(4-Dimethylamino-phenyl)-5H-pyrrolo[1,2-a]quinoxalin-4-one, trifluoroacetic acid salt]

melting point: 346 °C
SMILES: O=c1[nH]c2ccc(Cl)cc2n2cc(-c3ccccc3)cc12 [Example 13, 8-Chloro-2-phenyl-5H-pyrrolo[1,2-a]quinoxalin-4-one]

IC50 [2]: 8.4 µM | IC50 [1]: 0.011 µM | IC50 [3]: > 10 µM | IC50 [4]: > 10 µM
SMILES: CN1CCN(c2ccc3[nH]c(=O)c4cc(-c5ccccc5)cn4c3c2)CC1 [Example 14, 8-(4-Methyl-piperazin-1-yl)-2-phenyl-5H-pyrrolo[1,2-a]quinoxalin-4-one]

melting point: 314 to 315 °C
SMILES: Cc1ccc2[nH]c(=O)c3cc(-c4ccccc4)cn3c2c1 [Example 12, 8-Methyl-2-phenyl-5H-pyrrolo[1,2-a]quinoxalin-4-one]

inhibition at 10 µM [2]: 53% | inhibition at 1 µM [1]: 90% | IC50 [3]: > 10 µM | IC50 [4]: > 10 µM
SMILES: O=c1[nH]c2ccc(N3CCOCC3)cc2n2cc(-c3ccccc3)cc12 [Example 11, 8-Morpholin-4-yl-2-phenyl-5H-pyrrolo[1,2-a]quinoxalin-4-one, trifluoroacetic acid salt]

Continued, compound first:

SMILES: COc1ccc(-c2cc3c(=O)[nH]c4ccccc4n3c2)cc1 [Example 2, 2-(4-Methoxy-phenyl)-5H-pyrrolo[1,2-a]quinoxalin-4-one]
inhibition at 1 µM [1]: 82% | melting point: 327 to 332 °C

SMILES: CSc1nc2ccccc2n2cc(-c3ccccc3)cc12 [Example 9, 4-Methylsulfanyl-2-phenyl-pyrrolo[1,2-a]quinoxaline]
melting point: 132 °C

SMILES: CN(C)c1nc2ccccc2n2cc(-c3ccccc3)cc12 [Example 6, Dimethyl-(2-phenyl-pyrrolo[1,2-a]quinoxalin-4-yl)-amine]
melting point: 109 to 111 °C

SMILES: c1ccc(CCNc2nc3ccccc3n3cc(-c4ccccc4)cc23)cc1 [Example 7, Phenethyl-(2-phenyl-pyrrolo[1,2-a]quinoxalin-4-yl)-amine]
melting point: 126 °C

SMILES: CCNc1nc2ccccc2n2cc(-c3ccccc3)cc12.Cl
melting point: 299 to 301 °C

SMILES: c1ccc(Nc2nc3ccccc3n3cc(-c4ccccc4)cc23)cc1 [Example 3, Phenyl-(2-phenyl-pyrrolo[1,2-a]quinoxalin-4-yl)-amine]
melting point: 172 °C

SMILES: O=c1[nH]c2ccccc2n2cc(-c3ccccc3)cc12 [Example 1, 2-Phenyl-5H-pyrrolo[1,2-a]quinoxalin-4-one]
IC50 [2]: > 10 µM | affinity on A1 (in words) ([2]; up to 10 μM): no detectable affinity | IC50 [1]: 0.0093 µM | IC50 [3]: > 1 µM | affinity on A2B (in words) ([3]; up to 1 μM): no detectable affinity | melting point: 301 to 303 °C | mode of action at A3 receptor (prevents cAMP-decrease evoked by Cl-IB-MECA) ([5]; example 1 10 μM vs Cl-IB-MECA 0.1 μM): antagonist | cAMP levels ([5]; n = 1): 150.133 | cAMP levels ([5]; n = 2): 130.150 | cAMP levels ([5]; n = 3): 104.510 | IC50 [4]: > 10 µM | affinity on A2A (in words) ([4]; up to 10 μM): no detectable affinity
